ChEMBL document CHEMBL2396621, “Design, synthesis and biological evaluation of 2-mercapto-3-phenethylquinazoline bearing anilide fragments as potential antitumor agents: molecular docking study” (2013)

Columns and labels:
Type in all cases: functional
NCI-H460 = test: Cytotoxicity against human NCI-H460 cells assessed as growth inhibition at 10 uM after 48 hrs by coulter counter analysis; details: NCI-H460, 48 h, read-out: GI
LOX IMVI = test: Cytotoxicity against human LOXIMVI cells assessed as growth inhibition at 10 uM after 48 hrs by coulter counter analysis; details: read-out: GI
SF-295 = test: Cytotoxicity against human SF295 cells assessed as growth inhibition at 10 uM after 48 hrs by coulter counter analysis; details: SF-295, 48 h, read-out: GI
786-0 = test: Cytotoxicity against human 786-0 cells assessed as growth inhibition at 10 uM after 48 hrs by coulter counter analysis; details: 786-0, 48 h, read-out: GI
OVCAR-5 = test: Cytotoxicity against human OVCAR5 cells assessed as growth inhibition at 10 uM after 48 hrs by coulter counter analysis; details: OVCAR-5, 48 h, read-out: GI
SNB-75 = test: Cytotoxicity against human SNB75 cells assessed as growth inhibition at 10 uM after 48 hrs by coulter counter analysis; details: SNB-75, 48 h, read-out: GI
HCT-15 = test: Cytotoxicity against human HCT15 cells assessed as growth inhibition at 10 uM after 48 hrs by coulter counter analysis; details: HCT-15, 48 h, read-out: GI
COLO 205 = test: Cytotoxicity against human COLO205 cells assessed as growth inhibition at 10 uM after 48 hrs by coulter counter analysis; details: COLO 205, 48 h, read-out: GI
HOP-62 = test: Cytotoxicity against human HOP62 cells assessed as growth inhibition at 10 uM after 48 hrs by coulter counter analysis; details: HOP-62, 48 h, read-out: GI
M14 = test: Cytotoxicity against human M14 cells assessed as growth inhibition at 10 uM after 48 hrs by coulter counter analysis; details: M14, 48 h, read-out: GI
T47D = test: Cytotoxicity against human T47D cells assessed as growth inhibition at 10 uM after 48 hrs by coulter counter analysis; details: read-out: GI
SF-268 = test: Cytotoxicity against human SF268 cells assessed as growth inhibition at 10 uM after 48 hrs by coulter counter analysis; details: SF-268, 48 h, read-out: GI
SW-620 = test: Cytotoxicity against human SW620 cells assessed as growth inhibition at 10 uM after 48 hrs by coulter counter analysis; details: SW-620, 48 h, read-out: GI
OVCAR-8 = test: Cytotoxicity against human OVCAR8 cells assessed as growth inhibition at 10 uM after 48 hrs by coulter counter analysis; details: OVCAR-8, 48 h, read-out: GI
SNB-19 = test: Cytotoxicity against human SNB19 cells assessed as growth inhibition at 10 uM after 48 hrs by coulter counter analysis; details: SNB-19, 48 h, read-out: GI
SF-539 = test: Cytotoxicity against human SF539 cells assessed as growth inhibition at 10 uM after 48 hrs by coulter counter analysis; details: SF-539, 48 h, read-out: GI
MDA-MB-468 = test: Cytotoxicity against human MDA-MB-468 cells assessed as growth inhibition at 10 uM after 48 hrs by coulter counter analysis; details: MDA-MB-468, 48 h, read-out: GI
KM12 = test: Cytotoxicity against human KM12 cells assessed as growth inhibition at 10 uM after 48 hrs by coulter counter analysis; details: KM12, 48 h, read-out: GI
UO-31 = test: Cytotoxicity against human UO31 cells assessed as growth inhibition at 10 uM after 48 hrs by coulter counter analysis; details: UO-31, 48 h, read-out: GI
A498 = test: Cytotoxicity against human A498 cells assessed as growth inhibition at 10 uM after 48 hrs by coulter counter analysis; details: A498, 48 h, read-out: GI
SK-OV-3 = test: Cytotoxicity against human SKOV3 cells assessed as growth inhibition at 10 uM after 48 hrs by coulter counter analysis; details: SK-OV-3, 48 h, read-out: GI
OVCAR-4 = test: Cytotoxicity against human OVCAR4 cells assessed as growth inhibition at 10 uM after 48 hrs by coulter counter analysis; details: OVCAR-4, 48 h, read-out: GI
PC-3 = test: Cytotoxicity against human PC3 cells assessed as growth inhibition at 10 uM after 48 hrs by coulter counter analysis; details: PC-3, 48 h, read-out: GI
MCF7 = test: Cytotoxicity against human MCF7 cells assessed as growth inhibition at 10 uM after 48 hrs by coulter counter analysis; details: MCF7, 48 h, read-out: GI
HT-29 = test: Cytotoxicity against human HT-29 cells assessed as growth inhibition at 10 uM after 48 hrs by coulter counter analysis; details: HT-29, 48 h, read-out: GI
MDA-MB-435 = test: Cytotoxicity against human MDA-MB-435 cells assessed as growth inhibition at 10 uM after 48 hrs by coulter counter analysis; details: MDA-MB-435, 48 h, read-out: GI
[1] = Cytotoxicity against human EKVX cells assessed as growth inhibition at 10 uM after 48 hrs by coulter counter analysis; details: read-out: GI
UACC-257 = test: Cytotoxicity against human UACC257 cells assessed as growth inhibition at 10 uM after 48 hrs by coulter counter analysis; details: UACC-257, 48 h, read-out: GI
HCT-116 = test: Cytotoxicity against human HCT116 cells assessed as growth inhibition at 10 uM after 48 hrs by coulter counter analysis; details: HCT-116, 48 h, read-out: GI
A549 = test: Cytotoxicity against human A549 cells assessed as growth inhibition at 10 uM after 48 hrs by coulter counter analysis; details: A549, 48 h, read-out: GI
U-251 = test: Cytotoxicity against human U251 cells assessed as growth inhibition at 10 uM after 48 hrs by coulter counter analysis; details: U-251, 48 h, read-out: GI
Malme-3M = test: Cytotoxicity against human MALME-3M cells assessed as growth inhibition at 10 uM after 48 hrs by coulter counter analysis; details: read-out: GI
[2] = Cytotoxicity against human NCI-ADR-RES cells assessed as growth inhibition at 10 uM after 48 hrs by coulter counter analysis; details: read-out: GI
RXF 393 = test: Cytotoxicity against human RXF393 cells assessed as growth inhibition at 10 uM after 48 hrs by coulter counter analysis; details: RXF 393, 48 h, read-out: GI
HCC 2998 = test: Cytotoxicity against human HCC2998 cells assessed as growth inhibition at 10 uM after 48 hrs by coulter counter analysis; details: HCC 2998, 48 h, read-out: GI
SK-MEL-5 = test: Cytotoxicity against human SK-MEL-5 cells assessed as growth inhibition at 10 uM after 48 hrs by coulter counter analysis; details: SK-MEL-5, 48 h, read-out: GI
TK-10 = test: Cytotoxicity against human TK10 cells assessed as growth inhibition at 10 uM after 48 hrs by coulter counter analysis; details: TK-10, 48 h, read-out: GI

| SMILES | inhibition of growth at 10 µM (NCI-H460) [%] | inhibition of growth at 10 µM (LOX IMVI) [%] | inhibition of growth at 10 µM (SF-295) [%] | inhibition of growth at 10 µM (786-0) [%] | inhibition of growth at 10 µM (OVCAR-5) [%] | inhibition of growth at 10 µM (SNB-75) [%] | inhibition of growth at 10 µM (HCT-15) [%] | inhibition of growth at 10 µM (COLO 205) [%] | inhibition of growth at 10 µM (HOP-62) [%] | inhibition of growth at 10 µM (M14) [%] | inhibition of growth at 10 µM (T47D) [%] | inhibition of growth at 10 µM (SF-268) [%] | inhibition of growth at 10 µM (SW-620) [%] | inhibition of growth at 10 µM (OVCAR-8) [%] | inhibition of growth at 10 µM (SNB-19) [%] | inhibition of growth at 10 µM (SF-539) [%] | inhibition of growth at 10 µM (MDA-MB-468) [%] | inhibition of growth at 10 µM (KM12) [%] | inhibition of growth at 10 µM (UO-31) [%] | inhibition of growth at 10 µM (A498) [%] | other results |
| --- | --- | --- | --- | --- | --- | --- | --- | --- | --- | --- | --- | --- | --- | --- | --- | --- | --- | --- | --- | --- | --- |
| Cc1ccc(NC(=O)CSc2nc3ccccc3c(=O)n2CCc2ccccc2)cc1 | 22 | 14 | 12 | < 10 | < 10 | 12 | 10 | 15 | 42 | < 10 | 44 | 19 | 10 | 27 | 22 | 19 | 29 | 11 | < 10 | < 10 | inhibition of growth at 10 µM (SK-OV-3): 20%; inhibition of growth at 10 µM (OVCAR-4): < 10%; inhibition of growth at 10 µM (PC-3): 14%; inhibition of growth at 10 µM (MCF7): 23%; inhibition of growth at 10 µM (HT-29): < 10%; inhibition of growth at 10 µM (MDA-MB-435): 17%; inhibition of growth at 10 µM [1]: 29%; inhibition of growth at 10 µM (UACC-257): 17%; inhibition of growth at 10 µM (HCT-116): 13%; inhibition of growth at 10 µM (A549): 21%; inhibition of growth at 10 µM (U-251): 11%; inhibition of growth at 10 µM (Malme-3M): 17%; inhibition of growth at 10 µM [2]: < 10%; inhibition of growth at 10 µM (RXF 393): 10%; inhibition of growth at 10 µM (HCC 2998): < 10%; inhibition of growth at 10 µM (SK-MEL-5): 22%; inhibition of growth at 10 µM (TK-10): < 10% |
| CCOC(=O)c1ccc(NC(=O)CSc2nc3ccccc3c(=O)n2CCc2ccccc2)cc1 | 23 | 22 | 25 | < 10 | 15 | 39 | < 10 | 22 | 45 | 21 | 17 | 33 | 11 | 37 | 36 | < 10 | 18 | 11 | 10 | < 10 | inhibition of growth at 10 µM (SK-OV-3): 19%; inhibition of growth at 10 µM (OVCAR-4): 10%; inhibition of growth at 10 µM (PC-3): 10%; inhibition of growth at 10 µM (MCF7): 12%; inhibition of growth at 10 µM (HT-29): 12%; inhibition of growth at 10 µM (MDA-MB-435): 16%; inhibition of growth at 10 µM [1]: 34%; inhibition of growth at 10 µM (UACC-257): 29%; inhibition of growth at 10 µM (HCT-116): 14%; inhibition of growth at 10 µM (A549): 27%; inhibition of growth at 10 µM (U-251): 28%; inhibition of growth at 10 µM (Malme-3M): 23%; inhibition of growth at 10 µM [2]: 19%; inhibition of growth at 10 µM (RXF 393): 14%; inhibition of growth at 10 µM (HCC 2998): < 10%; inhibition of growth at 10 µM (SK-MEL-5): 21%; inhibition of growth at 10 µM (TK-10): < 10% |
| COc1cc(OC(=O)CSc2nc3ccccc3c(=O)n2CCc2ccccc2)cc(OC)c1OC | 26 | < 10 | 13 | < 10 | < 10 | 12 | 48 | < 10 | < 10 | < 10 | 26 | < 10 | < 10 | < 10 | < 10 | < 10 | < 10 | < 10 | 37 | < 10 | inhibition of growth at 10 µM (SK-OV-3): < 10%; inhibition of growth at 10 µM (OVCAR-4): < 10%; inhibition of growth at 10 µM (PC-3): < 10%; inhibition of growth at 10 µM (MCF7): 34%; inhibition of growth at 10 µM (HT-29): < 10%; inhibition of growth at 10 µM (MDA-MB-435): < 10%; inhibition of growth at 10 µM [1]: 36%; inhibition of growth at 10 µM (UACC-257): < 10%; inhibition of growth at 10 µM (HCT-116): 20%; inhibition of growth at 10 µM (A549): 10%; inhibition of growth at 10 µM (U-251): 26%; inhibition of growth at 10 µM (Malme-3M): < 10%; inhibition of growth at 10 µM [2]: 11%; inhibition of growth at 10 µM (RXF 393): < 10%; inhibition of growth at 10 µM (HCC 2998): < 10%; inhibition of growth at 10 µM (SK-MEL-5): < 10%; inhibition of growth at 10 µM (TK-10): < 10% |
